Patent US8975265B2, “Substituted imidazo[1,2-a]pyrimidines and —pyridines” (Bayer Intellectual Property GmbH, priority 2010, dated 2015)

Experiments:
[1] = molecular target: His-tagged human recombinant kinase full-length Akt1 (Homo sapiens (Human), UniProt P31749); experiment: Akt1 kinase assay (TR-FRET); assay type: biochemical; conditions: 10 μM ATP; read-out: Akt1, median IC50
Description: Biological Assay 1.0: Akt1 Kinase Assay
Akt1 inhibitory activity of compounds of the present invention was quantified employing the Akt1 TR-FRET assay as described in the following paragraphs.
As substrate for the kinase reaction the biotinylated peptide biotin-Ahx-[…] (C-terminus in amide form) was used which can be purchased e.g. from the company Biosynthan GmbH (Berlin-Buch, Germany).
For the assay 50 nl of a 100 fold concentrated solution of the test compound in DMSO was pipetted into a black low volume 384 well microtiter plate (Greiner Bio-One, Frickenhausen, Germany), 2 μl of a solution of Akt1 in assay buffer [50 mM TRIS/HCl pH 7.5, 5 mM MgCl2, 1 mM dithiothreitol, 0.02% (v/v) Triton X-100 (Sigma)] were added and the mixture was incubated for 15 min at 22° C. to allow prebinding of the test compounds to the enzyme before the start of the kinase reaction. […] The concentration of Akt1 in the assay was adjusted depending of the activity of the enzyme lot and was chosen appropriate to have the assay in the linear range, typical enzyme concentrations were in the range of about 0.05 ng/μl (final conc. in the 5 μl assay volume).
The resulting mixture was incubated 1 h at 22° C. to allow the binding of the biotinylated phosphorylated peptide to the streptavidine-XL665 and the antibodies. Subsequently the amount of phosphorylated substrate was evaluated by measurement of the resonance energy transfer from the anti-mouse-IgG-Eu-Chelate to the streptavidine-XL665.

[2] = system: KPL-4 breast cancer cell line; experiment: Tumor cell proliferation assay (CellTiter-Glo, 72 h), KPL-4; assay type: cell-based; conditions: KPL4, 72h drug exposure
Description: Biological Assay 4.0: Tumor Cell Proliferation Assays
Compounds were tested in a cell-based assay that measures the capacity of the compounds to inhibit tumour cell proliferation following a 72h drug exposure. Cell viability is determined using CellTiter-Glow® (CTG, Promega, cat# G7571/2/3). The CellTiter-Glo® Luminescent Cell Viability Assay is a homogeneous method to determine the number of viable cells in culture. Detection is based on using the luciferase reaction to measure the amount of ATP from viable cells. The amount of ATP in cells correlates with cell viability. Within minutes after a loss of membrane integrity, cells lose the ability to synthesize ATP, and endogenous ATPases destroy any remaining ATP; thus the levels of ATP fall precipitously.
For each cell line assayed, cells were plated onto a separate plate for determination of […] at t=0 hour and t=72 hour time points. Following overnight incubation at 37° C., chemiluminescence values for the t=0 samples were determined after adding 10 μl medium and 100 μl CTG solution according to manufacture protocol. Plates for the t=72 hour time points were treated with compounds diluted into growth medium at ten times final concentration added in 10 μL to the cell culture plate. Cells were then incubated for 72 hours at 37° C. Chemiluminescence values for the t=72 hour samples were determined. […] Experiments were controlled using a reference compound as standard.

[3] = system: p-AKT1/2/3-S473 in KPL4 breast tumour cell line; experiment: Cellular p-AKT1/2/3-S473 assay; assay type: cell-based; conditions: KPL4 breast tumour cell line, 2 hours treatment; read-out: pAKT-S743 median IC50
Description: The molecular mechanism of action was investigated in a set of experiments to assess the inhibition of the PI3K-AKT-mTOR pathway in responsive cell lines such as KPL4 breast tumour cell line (PIK3CAH1047R, HER20/E and hormone independent). The phospho-substrates of PI3K-AKT-mTOR axis were used as the read-outs to reflect pathway inhibition. Cells were seeded at 60-80% confluency per well in 96-well cell culture plates. After overnight incubation at 37° C. 5% CO2, cells were treated with compounds and vehicle at 37° C. for 2 hours. […] All measurements where at least done in duplicates and confirmed by independent repetition.
Alternatively pAKT-S473 was measured using the “Akt Duplex” of the MULTI-SPOT® Assay System (Fa. Meso Scale Discovery, Cat# N41100B-1) following manufacturers instructions. Each assay used 20 μg of protein extract and measured total AKT and p-AKT content simultaneously in one well. All measurements where at least done in duplicates and confirmed by independent repetition. Values for P-AKT are expressed as percentage of P-AKT level compared to total-AKT content of the extracts.

Chain of His-tagged human recombinant kinase full-length Akt1 (P31749 whole entry): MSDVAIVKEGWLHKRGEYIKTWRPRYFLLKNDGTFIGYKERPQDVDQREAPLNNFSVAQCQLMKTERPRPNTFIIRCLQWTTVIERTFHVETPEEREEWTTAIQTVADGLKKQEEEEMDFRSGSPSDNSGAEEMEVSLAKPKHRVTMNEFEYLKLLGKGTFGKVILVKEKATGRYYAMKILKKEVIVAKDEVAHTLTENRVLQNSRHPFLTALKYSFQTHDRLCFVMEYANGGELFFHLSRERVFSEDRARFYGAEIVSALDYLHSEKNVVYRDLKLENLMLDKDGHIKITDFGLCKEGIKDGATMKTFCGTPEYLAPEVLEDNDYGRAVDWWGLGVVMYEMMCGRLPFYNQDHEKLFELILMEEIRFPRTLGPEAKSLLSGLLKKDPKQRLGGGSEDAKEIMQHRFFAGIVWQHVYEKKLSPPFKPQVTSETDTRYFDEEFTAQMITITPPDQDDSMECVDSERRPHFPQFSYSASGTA

| IC50 [1] | IC50 [2] | IC50 [3] | SMILES |
| --- | --- | --- | --- |
| 989 nM | 2200 nM | 1940 nM | NC1(c2ccc(-c3nc4cc(-c5ccc(F)cc5)ccn4c3-c3ccccc3)cc2)CCC1 [Example 2-34] |
| 226 nM | 5000 nM | 975 nM | COC(=O)c1ccn2c(-c3ccccc3)c(-c3ccc(C4(N)CCC4)cc3)nc2c1 [Example 2-35] |
| 1640 nM | 1900 nM | 441 nM | NC1(c2ccc(-c3nc4cc(C5CC5)ccn4c3-c3ccccc3)cc2)CCC1 [Example 2-37] |
| 260 nM | 1900 nM | 467 nM | CCc1ccc2nc(-c3ccc(C4(N)CCC4)cc3)c(-c3ccccc3)n2c1 [Example 2-38] |
| 19400 nM | 9200 nM | 1240 nM | NC1(c2ccc(-c3nc4cc(C(=O)N5CCCC5)ccn4c3-c3ccccc3)cc2)CCC1 [Example 2-42] |
| 62 nM | 9200 nM | 1340 nM | CCOC(=O)c1cccn2c(-c3ccccc3)c(-c3ccc(C4(N)CCC4)cc3)nc12 [Example 2-43] |
| 140 nM | 2000 nM | 339 nM | NC1(c2ccc(-c3nc4c(C5CC5)cccn4c3-c3ccccc3)cc2)CCC1 [Example 2-47] |
| 300 nM | 2500 nM | 1030 nM | C=Cc1ccc2nc(-c3ccc(C4(N)CCC4)cc3)c(-c3ccccc3)n2c1 [Example 2-48] |
| 99 nM | 1900 nM | 297 nM | NC1(c2ccc(-c3nc4c(-c5cn[nH]c5)cccn4c3-c3ccccc3)cc2)CCC1 [Example 2-50] |
| 91 nM | 10000 nM | 4750 nM | NC1(c2ccc(-c3nc4ccc(C(=O)O)cn4c3-c3ccccc3)cc2)CCC1 [Example 2-51] |
| 1710 nM | 2000 nM | 276 nM | CC(C)NC(=O)c1ccc2nc(-c3ccc(C4(N)CCC4)cc3)c(-c3ccccc3)n2c1 [Example 2-53] |
| 423 nM | 1300 nM | 83 nM | NC1(c2ccc(-c3nc4ccc(C(=O)NCCF)cn4c3-c3ccccc3)cc2)CCC1 [Example 2-54] |
| 1140 nM | 5500 nM | 308 nM | NC1(c2ccc(-c3nc4ccc(C(=O)NCCO)cn4c3-c3ccccc3)cc2)CCC1 [Example 2-55] |
| 452 nM | 3400 nM | 200 nM | COCCNC(=O)c1ccc2nc(-c3ccc(C4(N)CCC4)cc3)c(-c3ccccc3)n2c1 [Example 2-56] |
| 493 nM | 3100 nM | 147 nM | NC1(c2ccc(-c3nc4ccc(C(=O)NC5CC5)cn4c3-c3ccccc3)cc2)CCC1 [Example 2-57] |
| 342 nM | 1900 nM | 193 nM | NC1(c2ccc(-c3nc4ccc(C(=O)NCC5CC5)cn4c3-c3ccccc3)cc2)CCC1 [Example 2-58] |
| 257 nM | 3800 nM | 236 nM | NC1(c2ccc(-c3nc4ccc(C(=O)NO)cn4c3-c3ccccc3)cc2)CCC1 [Example 2-59] |
| 31 nM | 7700 nM | 655 nM | COC(=O)c1cc(Cl)c2nc(-c3ccc(C4(N)CCC4)cc3)c(-c3ccccc3)n2c1 [Example 2-60] |
| 1900 nM | 9400 nM | 781 nM | CN(C)C(=O)c1ccc2nc(-c3ccc(C4(N)CCC4)cc3)c(-c3ccccc3)n2c1 [Example 2-61] |
| 376 nM | 1700 nM | 93 nM | CCNC(=O)c1ccc2nc(-c3ccc(C4(N)CCC4)cc3)c(-c3ccccc3)n2c1 [Example 2-62] |

| IC50 [1] | IC50 [2] | IC50 [3] | SMILES |
| --- | --- | --- | --- |
| 734 nM | 2000 nM | 256 nM | NC1(c2ccc(-c3nc4ccc(C5CC5)cn4c3-c3ccccc3)cc2)CCC1 [Example 2-63] |
| 1660 nM | 3200 nM | 203 nM | NC1(c2ccc(-c3nc4nc(OCCN5CCCC5=O)ccn4c3-c3ccccc3)cc2)CCC1 [Example 2-64] |
| 1070 nM | 10000 nM | 3840 nM | NC(=O)C1(COc2ccn3c(-c4ccccc4)c(-c4ccc(C5(N)CCC5)cc4)nc3n2)CC1 [Example 2-65] |
| 113 nM | 1800 nM | 134 nM | NC1(c2ccc(-c3nc4cc(Cl)ccn4c3-c3ccccc3)cc2)CCC1 [Example 2-66] |
| 151 nM | 2100 nM | 202 nM | NC1(c2ccc(-c3nc4ccccn4c3-c3ccccc3)cc2)CCC1 [Example 2-106, 1-[4-(3-phenyl-imidazo[1,2-a]pyridin-2-yl)-phenyl]-cyclobutylamine] |
| 204 nM | 1700 nM | 253 nM | CCOc1ccc2nc(-c3ccc(C4(N)CCC4)cc3)c(-c3ccccc3)n2c1 [Example 2-107, 1-[4-(6-ethoxy-3-phenyl-imidazo[1,2-a]pyridin-2-yl)-phenyl]-cyclobutylamine] |
| 1950 nM | 10000 nM | 3100 nM | C=Cc1ccn2c(-c3ccccc3)c(-c3ccc(C4(N)CCC4)cc3)nc2c1 [Example 2-108, 1-[4-(3-phenyl-7-vinyl-imidazo[1,2-a]pyridin-2-yl)-phenyl]-cyclobutylamine] |
| 181 nM | 1500 nM | 28 nM | NC1(c2ccc(-c3nc4cc(-c5ccncc5)ccn4c3-c3ccccc3)cc2)CCC1 [Example 2-109, 1-[4-(3-phenyl-7-pyridin-4-yl-imidazo[1,2-a]pyridin-2-yl)-phenyl]-cyclobutylamine] |
| 153 nM | 1700 nM | 66 nM | NC1(c2ccc(-c3nc4cc(-c5cc[nH]n5)ccn4c3-c3ccccc3)cc2)CCC1 [Example 2-112] |
| 236 nM | 1600 nM | 63 nM | Cn1cncc1-c1ccn2c(-c3ccccc3)c(-c3ccc(C4(N)CCC4)cc3)nc2c1 [Example 2-116] |
| 26 nM | 10000 nM | 10000 nM | NC1(c2ccc(-c3nc4cc(-c5nn[nH]n5)ccn4c3-c3ccccc3)cc2)CCC1 [Example 2-117] |
| 86 nM | 4200 nM | 725 nM | CCOC(=O)c1ccn2c(-c3ccccc3)c(-c3ccc(C4(N)CCC4)cc3)nc2c1 [Example 2-119] |
| 550 nM | 10000 nM | 8120 nM | NC1(c2ccc(-c3nc4cc(C(=O)O)ccn4c3-c3ccccc3)cc2)CCC1 [Example 2-120] |
| 409 nM | 1200 nM | 46 nM | CNC(=O)c1ccn2c(-c3ccccc3)c(-c3ccc(C4(N)CCC4)cc3)nc2c1 [Example 2-122] |
| 345 nM | 2400 nM | 268 nM | COC(=O)/C=C/c1ccn2c(-c3ccccc3)c(-c3ccc(C4(N)CCC4)cc3)nc2c1 [Example 2-123] |
| 171 nM | 1700 nM | 88 nM | NC1(c2ccc(-c3nc4ccc(-c5cc[nH]n5)cn4c3-c3ccccc3)cc2)CCC1 [Example 2-131] |
| 74 nM | 10000 nM | 9810 nM | NC1(c2ccc(-c3nc4ccc(-c5nn[nH]n5)cn4c3-c3ccccc3)cc2)CCC1 [Example 2-135] |
| 533 nM | 1900 nM | 150 nM | NC1(c2ccc(-c3nc4ccc(-c5ccncc5)cn4c3-c3ccccc3)cc2)CCC1 [Example 2-136] |
| 541 nM | 1700 nM | 149 nM | NC1(c2ccc(-c3nc4ccc(-c5cccnc5)cn4c3-c3ccccc3)cc2)CCC1 [Example 2-137] |
